Molecular target: T1, Recombinant Human Histamine H4 Receptor (Homo sapiens, UniProt Q9H3N8)
T1 construct: expressed in transfected cells; host or cells: SK-N-MC cells or COS7 cells, transiently transfected; cell membranes used
Assay: Binding Assay on Recombinant Human Histamine H4 Receptor
Details: competition binding with 3H-histamine, membranes of SK-N-MC or COS7 cells expressing human histamine H4 receptor; Ki by Cheng-Prusoff (KD 5 nM, ligand 5 nM); average of results obtained
From the text: Additional examples of embodiments of this invention are provided by hemitartrate salts of compounds of Formula (I) and by hydrates, such as monohydrates and dihydrates, of compounds of Formula (I). […]

T1 sequence (Q9H3N8 whole entry): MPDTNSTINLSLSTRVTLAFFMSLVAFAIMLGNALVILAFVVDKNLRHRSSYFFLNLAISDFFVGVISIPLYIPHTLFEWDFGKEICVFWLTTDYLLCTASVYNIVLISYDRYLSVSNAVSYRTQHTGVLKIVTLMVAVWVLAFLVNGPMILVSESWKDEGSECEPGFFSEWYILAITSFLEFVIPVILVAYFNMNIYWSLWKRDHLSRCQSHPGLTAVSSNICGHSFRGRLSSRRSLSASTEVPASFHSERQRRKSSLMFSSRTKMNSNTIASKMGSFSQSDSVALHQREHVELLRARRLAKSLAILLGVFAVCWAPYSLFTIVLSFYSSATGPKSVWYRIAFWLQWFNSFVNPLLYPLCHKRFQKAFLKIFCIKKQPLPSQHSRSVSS

| Compound | Ki [nM] |
| --- | --- |
| Cc1cc(F)cc2[nH]c(-c3cnc(NCCCC4CCN(C)CC4)nc3C3CC3)nc12 [Example 46, [4-Cyclopropyl-5-(6-fluoro-4-methyl-1H-benzoimidazol-2-yl)-pyrimidin-2-yl]-[3-(1-methyl-piperidin-4-yl)-propyl]-amine] | 230 |
| Cc1nc(NCCCC2CCN(C)CC2)ncc1-c1nc2c(Cl)cc(C(F)(F)F)cc2[nH]1 [Example 38, [5-(4-Chloro-6-trifluoromethyl-1H-benzoimidazol-2-yl)-4-methyl-pyrimidin-2-yl]-[3-(1-methyl-piperidin-4-yl)-propyl]-amine] | 2 |
| Cc1nc(NCCCC2CCN(C)CC2)ncc1-c1nc2c(F)cc(F)cc2[nH]1 [Example 6, [5-(4,6-Difluoro-1H-benzoimidazol-2-yl)-4-methyl-pyrimidin-2-yl]-[3-(1-methyl-piperidin-4-yl)-propyl]-amine] | 17 |
| Cc1ccc2[nH]c(-c3cnc(NCCCC4CCN(C)CC4)nc3C(C)C)nc2c1C [Example 11, [5-(4,5-Dimethyl-1H-benzoimidazol-2-yl)-4-isopropyl-pyrimidin-2-yl]-[3-(1-methyl-piperidin-4-yl)-propyl]-amine] | 360 |
| Cc1nc(NCCCC2CCN(C)CC2)ncc1-c1nc2c(C)cccc2[nH]1 [Example 21, [4-Methyl-5-(4-methyl-1H-benzoimidazol-2-yl)-pyrimidin-2-yl]-[3-(1-methyl-piperidin-4-yl)-propyl]-amine] | 27 |
| Cc1nc(NCCCC2CCN(C)CC2)ncc1-c1nc2cc(Cl)c(Cl)cc2[nH]1 [Example 41, [5-(5,6-Dichloro-1H-benzoimidazol-2-yl)-4-methyl-pyrimidin-2-yl]-[3-(1-methyl-piperidin-4-yl)-propyl]-amine] | 6 |
| Cc1nc(NCCCC2CCN(C)CC2)ncc1-c1nc2cc(C#N)ccc2[nH]1 [Example 36, 2-{4-Methyl-2-[3-(1-methyl-piperidin-4-yl)-propylamino]-pyrimidin-5-yl}-1H-benzoimidazole-5-carbonitrile] | 170 |
| Cc1nc(NCCCC2CCN(C)CC2)ncc1-c1nc2cc(C(F)(F)F)ccc2[nH]1 [Example 24, [3-(1-Methyl-piperidin-4-yl)-propyl]-[4-methyl-5-(5-trifluoromethyl-1H-benzoimidazol-2-yl)-pyrimidin-2-yl]-amine] | 12 |
| COc1ccc2[nH]c(-c3cnc(NCCCC4CCN(C)CC4)nc3C)nc2c1 [Example 37, [5-(5-Methoxy-1H-benzoimidazol-2-yl)-4-methyl-pyrimidin-2-yl]-[3-(1-methyl-piperidin-4-yl)-propyl]-amine] | 81 |
| Cc1cc(F)cc2[nH]c(-c3cnc(NCCCC4CCN(C)CC4)nc3C(F)(F)F)nc12 [Example 28, [5-(6-Fluoro-4-methyl-1H-benzoimidazol-2-yl)-4-trifluoromethyl-pyrimidin-2-yl]-[3-(1-methyl-piperidin-4-yl)-propyl]-amine] | 62 |
| Cc1ccc2[nH]c(-c3cnc(NCCCC4CCN(C)CC4)cn3)nc2c1C [Example 34, [5-(4,5-Dimethyl-1H-benzoimidazol-2-yl)-pyrazin-2-yl]-[3-(1-methyl-piperidin-4-yl)-propyl]-amine] | 680 |
| Cc1c(F)ccc2[nH]c(-c3cnc(NCCCC4CCN(C)CC4)nc3C3CC3)nc12 [Example 48, [4-Cyclopropyl-5-(5-fluoro-4-methyl-1H-benzoimidazol-2-yl)-pyrimidin-2-yl]-[3-(1-methyl-piperidin-4-yl)-propyl]-amine] | 140 |
| CN1CCC(CCCNc2ncc(-c3nc4cc(F)c(F)cc4[nH]3)c(C(F)(F)F)n2)CC1 [Example 31, [5-(5,6-Difluoro-1H-benzoimidazol-2-yl)-4-trifluoromethyl-pyrimidin-2-yl]-[3-(1-methyl-piperidin-4-yl)-propyl]-amine] | 230 |
| CN1CCC(CCCNc2ncc(-c3nc4c(F)c(F)ccc4[nH]3)c(C3CCC3)n2)CC1 [Example 14, [4-Cyclobutyl-5-(4,5-difluoro-1H-benzoimidazol-2-yl)-pyrimidin-2-yl]-[3-(1-methyl-piperidin-4-yl)-propyl]-amine] | 1010 |
| Cc1cc(C)c2nc(-c3cnc(NCCCC4CCN(C)CC4)nc3C3CC3)[nH]c2c1 [Example 47, [4-Cyclopropyl-5-(4,6-dimethyl-1H-benzoimidazol-2-yl)-pyrimidin-2-yl]-[3-(1-methyl-piperidin-4-yl)-propyl]-amine] | 99 |
| CN1CCC(CCCNc2ncc(-c3nc4c(Cl)cc(Cl)cc4[nH]3)c(C(F)(F)F)n2)CC1 [Example 29, [5-(4,6-Dichloro-1H-benzoimidazol-2-yl)-4-trifluoromethyl-pyrimidin-2-yl]-[3-(1-methyl-piperidin-4-yl)-propyl]-amine] | 35 |
| CCCc1nc(NCCCC2CCN(C)CC2)ncc1-c1nc2c(F)c(C)ccc2[nH]1 [Example 10, [5-(4-Fluoro-5-methyl-1H-benzoimidazol-2-yl)-4-propyl-pyrimidin-2-yl]-[3-(1-methyl-piperidin-4-yl)-propyl]-amine] | 470 |

| Compound | Ki [nM] |
| --- | --- |
| Cc1c(F)ccc2[nH]c(-c3cnc(NCCCC4CCN(C)CC4)nc3C(C)C)nc12 [Example 20, [5-(5-Fluoro-4-methyl-1H-benzoimidazol-2-yl)-4-isopropyl-pyrimidin-2-yl]-[3-(1-methyl-piperidin-4-yl)-propyl]-amine] | 230 |
| [5-(4,5-Dimethyl-1H-benzoimidazol-2-yl)-4-ethyl-pyrimidin-2-yl]-methyl-[3-(1-methyl-piperidin-4-yl)-propyl]-amine [Example 8] | 29 |
| Cc1ccc2[nH]c(-c3cnc(NCCCC4CCN(C)CC4)nc3C3CCC3)nc2c1C [Example 13, [4-Cyclobutyl-5-(4,5-dimethyl-1H-benzoimidazol-2-yl)-pyrimidin-2-yl]-[3-(1-methyl-piperidin-4-yl)-propyl]-amine] | 430 |
| Cc1cccc2[nH]c(-c3cnc(NCCCC4CCN(C)CC4)nc3C3CC3)nc12 [Example 44, [4-Cyclopropyl-5-(4-methyl-1H-benzoimidazol-2-yl)-pyrimidin-2-yl]-[3-(1-methyl-piperidin-4-yl)-propyl]-amine] | 560 |
| Cc1c(F)ccc2[nH]c(-c3cnc(NCCCC4CCN(C)CC4)nc3)nc12 [Example 15, [5-(5-Fluoro-4-methyl-1H-benzoimidazol-2-yl)-pyrimidin-2-yl]-[3-(1-methyl-piperidin-4-yl)-propyl]-amine] | 290 |
| Cc1c(F)ccc2[nH]c(-c3cnc(NCCCC4CCN(C)CC4)nc3C3CCC3)nc12 [Example 16, [4-Cyclobutyl-5-(5-fluoro-4-methyl-1H-benzoimidazol-2-yl)-pyrimidin-2-yl]-[3-(1-methyl-piperidin-4-yl)-propyl]-amine] | 1470 |
| Cc1nc(NCCCC2CCN(C)CC2)ncc1-c1nc2cc(Cl)ccc2[nH]1 [Example 40, [5-(5-Chloro-1H-benzoimidazol-2-yl)-4-methyl-pyrimidin-2-yl]-[3-(1-methyl-piperidin-4-yl)-propyl]-amine] | 7 |
| Cc1nc(NCCCC2CCN(C)CC2)ncc1-c1nc2cc(F)ccc2[nH]1 [Example 23, [5-(5-Fluoro-1H-benzoimidazol-2-yl)-4-methyl-pyrimidin-2-yl]-[3-(1-methyl-piperidin-4-yl)-propyl]-amine] | 59 |
| CCCc1nc(NCCCC2CCN(C)CC2)ncc1-c1nc2c(C)c(C)ccc2[nH]1 [Example 18, [5-(4,5-Dimethyl-1H-benzoimidazol-2-yl)-4-propyl-pyrimidin-2-yl]-[3-(1-methyl-piperidin-4-yl)-propyl]-amine] | 2410 |
| Cc1nc(NCCCC2CCN(C)CC2)ncc1-c1nc2cc(Cl)c(F)cc2[nH]1 [Example 39, [5-(5-Chloro-6-fluoro-1H-benzoimidazol-2-yl)-4-methyl-pyrimidin-2-yl]-[3-(1-methyl-piperidin-4-yl)-propyl]-amine] | 15 |
| Cc1cc(C)c2nc(-c3cnc(NCCCC4CCN(C)CC4)nc3C(C)C)[nH]c2c1 [Example 12, [5-(4,6-Dimethyl-1H-benzoimidazol-2-yl)-4-isopropyl-pyrimidin-2-yl]-[3-(1-methyl-piperidin-4-yl)-propyl]-amine] | 200 |
| CC(C)c1nc(NCCCC2CCN(C)CC2)ncc1-c1nc2c(F)c(F)ccc2[nH]1 [Example 32, [5-(4,5-Difluoro-1H-benzoimidazol-2-yl)-4-isopropyl-pyrimidin-2-yl]-[3-(1-methyl-piperidin-4-yl)-propyl]-amine] | 6110 |
| Cc1ccc2[nH]c(-c3cnc(NCCCC4CCN(C)CC4)nc3C3CC3)nc2c1C [Example 45, [4-Cyclopropyl-5-(4,5-dimethyl-1H-benzoimidazol-2-yl)-pyrimidin-2-yl]-[3-(1-methyl-piperidin-4-yl)-propyl]-amine] | 390 |
| CCc1nc(NCCCC2CCN(C)CC2)ncc1-c1nc2c(C)cc(C)cc2[nH]1 [Example 42, [5-(4,6-Dimethyl-1H-benzoimidazol-2-yl)-4-ethyl-pyrimidin-2-yl]-[3-(1-methyl-piperidin-4-yl)-propyl]-amine] | 22 |
| Cc1nc(NCCCC2CCN(C)CC2)ncc1-c1nc2cc(C(C)(C)C)ccc2[nH]1 [Example 25, [5-(5-tert-Butyl-1H-benzoimidazol-2-yl)-4-methyl-pyrimidin-2-yl]-[3-(1-methyl-piperidin-4-yl)-propyl]-amine] | 13 |
| Cc1cc(C)c2nc(-c3cnc(N(C)CCCC4CCN(C)CC4)nc3C)[nH]c2c1 [Example 7, [5-(4,6-Dimethyl-1H-benzoimidazol-2-yl)-4-methyl-pyrimidin-2-yl]-methyl-[3-(1-methyl-piperidin-4-yl)-propyl]-amine] | 83 |
| Cc1nc(NCCCC2CCN(C)CC2)ncc1-c1nc2ccccc2[nH]1 [Example 22, [5-(1H-Benzoimidazol-2-yl)-4-methyl-pyrimidin-2-yl]-[3-(1-methyl-piperidin-4-yl)-propyl]-amine] | 110 |

Source: US9365548B2, “Benzoimidazol-2-yl pyrimidines and pyrazines as modulators of the histamine H4 receptor” (Janssen Pharmaceutica NV, priority 2006, dated 2016)
